Measured values: patent US20180111913A1, “SUBSTITUTED BENZOFURAN DERIVATIVES AS NOVEL ANTIMYCOBACTERIAL AGENTS” (priority 2015, published 2018)
In brackets after ≈: the same amount, converted by molar mass. Where two headings read alike, the source gives them in different places.

Assays:
[1] = tested on: Mtb strain mc^27000; assay: microbe, parasite or virus in culture; assay type: cell-based, Mycobacterium tuberculosis
[2] = tested on: M tuberculosis; assay type: in vivo, Mycobacterium tuberculosis in GKO mice
[3] = target: Mtb Pks13-TE domain (wild-type) (Mycobacterium tuberculosis, UniProt I6X8D2); assay: biochemical; assay type: biochemical
[4] = GKO mice, 300 mg/kg, 200 mg/kg from day 4; seizures
[5] = tested on: human dermal fibroblast (HDF) cells
[6] = tested on: Mtb isolate H37Rv; conditions: whole-cell screen; cited from earlier work

Sequence of Mtb Pks13-TE domain (wild-type) (I6X8D2 1451-1733): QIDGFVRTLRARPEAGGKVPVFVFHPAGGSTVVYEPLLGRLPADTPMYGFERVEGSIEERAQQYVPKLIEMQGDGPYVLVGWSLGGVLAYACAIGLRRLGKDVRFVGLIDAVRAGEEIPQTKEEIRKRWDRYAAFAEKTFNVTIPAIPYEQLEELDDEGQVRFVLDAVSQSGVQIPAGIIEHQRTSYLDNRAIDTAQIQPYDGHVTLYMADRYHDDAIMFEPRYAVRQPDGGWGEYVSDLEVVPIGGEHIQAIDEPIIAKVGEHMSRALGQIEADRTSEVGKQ

CNC(=O)c1c(-c2ccccc2)oc2ccc(O)c(CN3CCCCC3)c12 [compound 17]
MIC ([1]; Mtb mc^27000, liquid medium, 96-well plates, listed as compound L, read-out: MIC): 0.2 µM (≈ 0.0729 µg/mL)
MIC ([1]; Mtb mc^27000, liquid medium, 96-well plates, read-out: MIC): 2 µM (≈ 0.729 µg/mL)
MIC ([1]; Mycobacterium tuberculosis, […], mean ± s.d. of triplicates, NI: no inhibition, read-out: MIC): 0.2 µM (≈ 0.0729 µg/mL)
MIC ([1]; Mycobacterium tuberculosis, read-out: Pks13 MIC): 0.2 µM (≈ 0.0729 µg/mL)
MIC lower than that of the test compound ([1]; relative to test compound): > 10 fold
log CFU reduction versus untreated control in the lungs ([2]; GKO mice, 300 mg/kg then 200 mg/kg from day 4, sacrificed day 8 of dosing, no drug clearance period, lungs): 0.53 log CFU
log CFU reduction versus untreated control in the spleen ([2]; GKO mice, 300 mg/kg then 200 mg/kg from day 4, sacrificed day 8 of dosing, no drug clearance period, spleen): 3.72 log CFU
Lung CFU ([2]; mouse, in vivo): 7.21
Lung RLU ([2]; mouse, in vivo): 4.24
Spleen CFU ([2]; mouse, in vivo): 3.01
Spleen RLU ([2]; mouse, in vivo): 1.85
IC50 ([3]; Mtb Pks13-TE domain, mean ± s.d. of triplicates, read-out: IC50): 290 ± 10 nM
IC50 ([3]; Pks13-TE, 20 μM 4-MUH, read-out: IC50): 290 nM
IC50 ([3]; Pks13 enzyme inhibition, read-out: Pks13 IC50): 290 nM
toxicity observed during dosing [4]: apparent toxicity
growth inhibition in HDF cells relative to DMSO only control [5]: did not show any growth inhibition
Survival vs. Control ([5]; HDF cell survival relative to DMSO-only control at the first (or only) Non-Toxic Concentration value): 103%
Non-Toxic Concentration ([5]; human, 48 h): 50 µM

CCOC(=O)c1c(-c2ccccc2)oc2ccc(O)c(CN3CCC(C)CC3)c12 [test compound]
MIC against Mtb isolate H37Rv [6]: 2.0 µM (≈ 0.787 µg/mL)
